Literature values, collected in patent US20050255150A1 (priority 2004, published 2005).

Conditions: in vivo

## CCOC(=O)C1(c2ccccc2)CCN(C)CC1 [Meperidine]
  Intramuscular Administration equivalent of 10 mg of intramuscular morphine in 24 hours: 75 mg

## COc1ccc2c3c1O[C@H]1[C@@H](O)C=C[C@H]4[C@@H](C2)N(C)CC[C@@]341 [Codeine]
  Intramuscular Administration equivalent of 10 mg of intramuscular morphine in 24 hours: 130 mg
po
  Oral Administration equivalent of 10 mg morphine in 24 hours: 200 mg

## CN1CC[C@]23c4c5ccc(O)c4O[C@H]2[C@@H](O)C=C[C@H]3[C@H]1C5 [Morphine]
  Intramuscular Administration equivalent of 10 mg of intramuscular morphine in 24 hours: 10 mg
po
  Oral Administration equivalent of 10 mg morphine in 24 hours: 60 (30 mg)
  Oral Administration equivalent of 10 mg morphine in 24 hours (value in brackets): 60 (30 mg)

## COc1ccc2c3c1O[C@H]1C(=O)CC[C@@]4(O)[C@@H](C2)N(C)CC[C@]314 [Oxycodone]
  Intramuscular Administration equivalent of 10 mg of intramuscular morphine in 24 hours: 15 mg
po
  Oral Administration equivalent of 10 mg morphine in 24 hours: 30 mg

## CN1CC[C@]23c4c5ccc(O)c4O[C@H]2C(=O)CC[C@@]3(O)[C@H]1C5 [Oxymorphone]
  Intramuscular Administration equivalent of 10 mg of intramuscular morphine in 24 hours: 1 mg
po
  Oral Administration equivalent of 10 mg morphine in 24 hours: 10 mg

## CCC(=O)C(CC(C)N(C)C)(c1ccccc1)c1ccccc1 (centres unmarked) [Methadone]
  Intramuscular Administration equivalent of 10 mg of intramuscular morphine in 24 hours: 10 mg
po
  Oral Administration equivalent of 10 mg morphine in 24 hours: 20 mg

## CC(=O)Oc1ccc2c3c1O[C@H]1[C@@H](OC(C)=O)C=C[C@H]4[C@@H](C2)N(C)CC[C@@]341 [Heroin]
  Intramuscular Administration equivalent of 10 mg of intramuscular morphine in 24 hours: 5 mg
po
  Oral Administration equivalent of 10 mg morphine in 24 hours: 60 mg
